The structures appear in SMILES notation.

Among the data in patent US20210395239A1 (Hoffmann-La Roche Inc., priority 2018, published 2021) are IC50 values, retold here.

In this assay the target is T1, human TLR7 (Homo sapiens, UniProt Q9NYK1).
T1 construct: host or cells: HEK293 (HEK-Blue hTLR7)
T1 sequence (Q9NYK1 27-1049): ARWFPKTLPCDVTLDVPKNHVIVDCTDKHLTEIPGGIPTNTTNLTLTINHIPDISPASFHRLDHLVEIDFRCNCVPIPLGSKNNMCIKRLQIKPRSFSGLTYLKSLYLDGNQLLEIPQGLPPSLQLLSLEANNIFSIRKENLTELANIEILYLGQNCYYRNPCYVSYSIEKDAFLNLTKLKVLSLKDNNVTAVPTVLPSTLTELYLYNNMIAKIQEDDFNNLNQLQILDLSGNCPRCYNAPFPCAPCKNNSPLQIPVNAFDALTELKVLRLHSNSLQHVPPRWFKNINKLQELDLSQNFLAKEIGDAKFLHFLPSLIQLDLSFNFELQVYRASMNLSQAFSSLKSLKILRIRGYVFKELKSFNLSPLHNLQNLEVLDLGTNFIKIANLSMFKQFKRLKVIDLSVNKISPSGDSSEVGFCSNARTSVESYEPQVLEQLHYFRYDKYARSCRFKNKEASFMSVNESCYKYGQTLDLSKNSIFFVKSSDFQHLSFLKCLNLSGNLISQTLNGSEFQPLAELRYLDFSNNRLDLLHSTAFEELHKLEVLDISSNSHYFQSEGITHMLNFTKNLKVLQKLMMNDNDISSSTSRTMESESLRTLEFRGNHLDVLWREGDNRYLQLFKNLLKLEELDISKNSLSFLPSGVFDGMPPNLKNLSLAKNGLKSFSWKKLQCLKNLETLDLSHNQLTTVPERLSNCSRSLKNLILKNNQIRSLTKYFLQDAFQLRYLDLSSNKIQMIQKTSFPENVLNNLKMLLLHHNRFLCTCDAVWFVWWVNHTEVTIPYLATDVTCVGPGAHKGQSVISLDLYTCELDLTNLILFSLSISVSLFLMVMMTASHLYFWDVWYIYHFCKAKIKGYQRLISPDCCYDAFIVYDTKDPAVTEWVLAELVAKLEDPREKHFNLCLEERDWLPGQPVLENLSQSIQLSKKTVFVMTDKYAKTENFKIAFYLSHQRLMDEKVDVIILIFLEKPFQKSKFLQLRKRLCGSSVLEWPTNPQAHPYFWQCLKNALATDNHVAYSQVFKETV
As to the kind of experiment: HEK293-Blue-hTLR-7 cells assay (SEAP reporter, R848 stimulation). The format is cell-based. As to conditions: HEK293-Blue-hTLR7 cells, R848, 20 hrs; read-out: HEK/hTLR7 IC50. The gist of the method:
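HEK293-Blue-hTLR7 cells (NF-κB/AP-1-driven SEAP reporter) were stimulated with R848 alongside serially diluted compound at 1% final DMSO for 20 h at 37 °C. Supernatant SEAP was then developed with QUANTI-Blue for 2 h at 37 °C and absorbance read at 620–655 nm; antagonism is measured as reduced reporter signal.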
Turning to `CO[C@@H]1CN(c2nc(C)cc(N3CCN(C[C@H]4CN(c5ccc(C#N)c6ncccc56)C[C@@H](C)O4)CC3)n2)C[C@H]1N` (single isomer, unassigned) [Example 69B], the IC50 amounted to 7 nM. For `Cc1cc(N2CCN(C[C@H]3CN(c4ccc(C#N)c5ncccc45)C[C@@H](C)O3)CC2)nc(N2C[C@H](N)C[C@H](F)C2)n1` (relative stereo) [Example 74, 5-[(2R,6S)-2-methyl-6-[[4-[6-methyl-2-[cis-3-amino-5-fluoro-1-piperidyl]pyrimidin-4-yl]piperazin-1-yl]methyl]morpholin-4-yl]quinoline-8-carbonitrile] the value was 24 nM. For `Cc1cc(N2CCN(C[C@H]3CN(c4ccc(C#N)c5ncccc45)C[C@@H](C)O3)CC2)nc(N[C@@H]2CNC[C@@H]2F)n1` [Example 71, 5-[(2S,6R)-2-[[4-[2-[[(3R,4S)-4-fluoropyrrolidin-3-yl]amino]-6-methyl-pyrimidin-4-yl]piperazin-1-yl]methyl]-6-methyl-morpholin-4-yl]quinoline-8-carbonitrile] the value was 45 nM; for `Cc1cc(N2CCN(C[C@H]3CN(c4ccc(C#N)c5ncccc45)C[C@@H](C)O3)CC2)nc(N2CCC(N)C(F)(F)C2)n1` (stereo partly drawn) [Example 86, 5-[(2S,6R)-2-[[4-[2-(4-amino-3,3-difluoro-1-piperidyl)-6-methyl-pyrimidin-4-yl]piperazin-1-yl]methyl]-6-methyl-morpholin-4-yl]quinoline-8-carbonitrile], 22 nM; for `Cc1cc(N2CCN(C[C@H]3CN(c4ccc(C#N)c5ncccc45)C[C@@H](C)O3)CC2)nc(N2CC[C@@H](F)[C@@H](N)C2)n1` [Example 83, 5-[(2R,6S)-2-methyl-6-[[4-[6-methyl-2-[(3S,4R)-3-amino-4-fluoro-1-piperidyl]-pyrimidin-4-yl]piperazin-1-yl]methyl]morpholin-4-yl]quinoline-8-carbonitrile], 32 nM.

Turning to `Cc1cc(N2CCN(C[C@H]3CN(c4ccc(C#N)c5ncccc45)C[C@@H](C)O3)CC2)nc(N2CC[C@@H](N)C(F)C2)n1` (stereo in doubt) [Example 82, 5-[(2S,6R)-2-[[4-[2-[(3R,4R)-4-amino-3-fluoro-1-piperidyl]-6-methyl-pyrimidin-4-yl]piperazin-1-yl]methyl]-6-methyl-morpholin-4-yl]quinoline-8-carbonitrile], the IC50 was found to be 29 nM. For the molecule `Cc1cc(N2CCN(C[C@H]3CN(c4ccc(C#N)c5ncccc45)C[C@@H](C)O3)CC2)nc(N[C@@H]2CNC[C@H]2F)n1` [Example 76, 5-[(2S,6R)-2-[[4-[2-[[(3R,4R)-4-fluoropyrrolidin-3-yl]amino]-6-methyl-pyrimidin-4-yl]piperazin-1-yl]methyl]-6-methyl-morpholin-4-yl]quinoline-8-carbonitrile], the IC50 was 20 nM. For the molecule `Cc1cc(N2CCN(C[C@H]3CN(c4ccc(C#N)c5ncccc45)C[C@@H](C)O3)CC2)nc(N2C[C@@H](N)[C@H](F)C2)n1` [Example 79, 5-[(2S,6R)-2-[[4-[2-[(3R,4R)-3-amino-4-fluoro-pyrrolidin-1-yl]-6-methyl-pyrimidin-4-yl]piperazin-1-yl]methyl]-6-methyl-morpholin-4-yl]quinoline-8-carbonitrile], the IC50 was determined as 21 nM.

As to `CO[C@H]1CN(c2nc(C)cc(N3CCN(C[C@H]4CN(c5ccc(C#N)c6ncccc56)C[C@@H](C)O4)CC3)n2)CCC1N` (stereo in doubt) [Example 90, 5-[(2S,6R)-2-[[4-[2-[(3S,4S)-4-amino-3-methoxy-1-piperidyl]-6-methyl-pyrimidin-4-yl]piperazin-1-yl]methyl]-6-methyl-morpholin-4-yl]quinoline-8-carbonitrile], the IC50 is 21 nM. Consider `CO[C@H]1CN(c2nc(C)cc(N3CCN(C[C@H]4CN(c5ccc(C#N)c6ncccc56)C[C@@H](C)O4)CC3)n2)C[C@@H]1N` (single isomer, unassigned) [Example 69A], for which the IC50 came to 11 nM. With `Cc1cc(N2CCN(C[C@H]3CN(c4ccc(C#N)c5ncccc45)C[C@@H](C)O3)CC2)nc(N2C[C@H](N)C[C@@H](F)C2)n1` (relative stereo) [Example 75, 5-[(2R,6S)-2-methyl-6-[[4-[6-methyl-2-[trans-3-amino-5-fluoro-1-piperidyl]pyrimidin-4-yl]piperazin-1-yl]methyl]morpholin-4-yl]quinoline-8-carbonitrile], the IC50 stood at 25 nM.

Consider `Cc1cc(N2CCN(C[C@H]3CN(c4ccc(C#N)c5ncccc45)C[C@@H](C)O3)CC2)nc(N2CC(N)CC(F)(F)C2)n1` (stereo partly drawn) [Example 80, 5-[(2S,6R)-2-[[4-[2-(5-amino-3,3-difluoro-1-piperidyl)-6-methyl-pyrimidin-4-yl]piperazin-1-yl]methyl]-6-methyl-morpholin-4-yl]quinoline-8-carbonitrile], for which the IC50 came out at 107 nM. `Cc1cc(N2CCN(C[C@H]3CN(c4ccc(C#N)c5ncccc45)C[C@@H](C)O3)CC2)nc(NC2CNCC2F)n1` (stereo in doubt) [Example 73, 5-[(2S,6R)-2-[[4-[2-[[(3S,4R)-4-fluoropyrrolidin-3-yl]amino]-6-methyl-pyrimidin-4-yl]piperazin-1-yl]methyl]-6-methyl-morpholin-4-yl]quinoline-8-carbonitrile]: the IC50 was found to be 49 nM.

With `COC1CNCC1Nc1nc(C)cc(N2CCN(C[C@H]3CN(c4ccc(C#N)c5ncccc45)C[C@@H](C)O3)CC2)n1` (stereo in doubt) [Example 70, 5-[(2S,6R)-2-[[4-[2-[[(3R,4R)-4-methoxypyrrolidin-3-yl]amino]-6-methyl-pyrimidin-4-yl]piperazin-1-yl]methyl]-6-methyl-morpholin-4-yl]quinoline-8-carbonitrile], the IC50 came out at 70 nM. Turning to `Cc1cc(N2CCN(C[C@H]3CN(c4ccc(C#N)c5ncccc45)C[C@@H](C)O3)CC2)nc(N2CC[C@@H](F)C(N)C2)n1` (single isomer, unassigned) [Example 84], the IC50 turned out to be 10 nM.

Turning to `Cc1cc(N2CCN(C[C@H]3CN(c4ccc(C#N)c5ncccc45)C[C@@H](C)O3)CC2)nc(N2C[C@@H](N)C[C@@H](F)C2)n1` [Example 77, 5-[(2S,6R)-2-[[4-[2-[(3S,5R)-3-amino-5-fluoro-1-piperidyl]-6-methyl-pyrimidin-4-yl]piperazin-1-yl]methyl]-6-methyl-morpholin-4-yl]quinoline-8-carbonitrile], the IC50 was found to be 26 nM. For the molecule `C[C@@H]1CN(c2ccc(C#N)c3ncccc23)C[C@H](CN2CCN(c3ccccc3C3CNCCO3)CC2)O1` (stereo partly drawn) [Example 89, 5-[(2R,6S)-2-methyl-6-[[4-(2-morpholin-2-ylphenyl)piperazin-1-yl]methyl]morpholin-4-yl]quinoline-8-carbonitrile], the IC50 came out at 6 nM. In the case of `Cc1cc(N2CCN(C[C@H]3CN(c4ccc(C#N)c5ncccc45)C[C@@H](C)O3)CC2)nc(N2CC(N)C2)n1` [Example 87, 5-[(2S,6R)-2-[[4-[2-(3-aminoazetidin-1-yl)-6-methyl-pyrimidin-4-yl]piperazin-1-yl]methyl]-6-methyl-morpholin-4-yl]quinoline-8-carbonitrile], the IC50 was determined as 8 nM. For the molecule `COC1CN(c2nc(C)cc(N3CCN(C[C@H]4CN(c5ccc(C#N)c6ncccc56)C[C@@H](C)O4)CC3)n2)CC1N` (single isomer, unassigned) [Example 88], the IC50 amounted to 21 nM.

On to `Cc1cc(N2CCN(C[C@H]3CN(c4ccc(C#N)c5ncccc45)C[C@@H](C)O3)CC2)nc(N2CCNC(C(C)(C)O)C2)n1` (stereo partly drawn) [Example 81, 5-[(2S,6R)-2-[[4-[2-[3-(1-hydroxy-1-methyl-ethyl)piperazin-1-yl]-6-methyl-pyrimidin-4-yl]piperazin-1-yl]methyl]-6-methyl-morpholin-4-yl]quinoline-8-carbonitrile], for which the IC50 was determined as 22 nM. For `CO[C@@H]1CN(c2nc(C)cc(N3CCN(C[C@H]4CN(c5ccc(C#N)c6ncccc56)C[C@@H](C)O4)CC3)n2)C[C@@H]1N` [Example 72, 5-[(2S,6R)-2-[[4-[2-[(3S,4R)-3-amino-4-methoxy-pyrrolidin-1-yl]-6-methyl-pyrimidin-4-yl]piperazin-1-yl]methyl]-6-methyl-morpholin-4-yl]quinoline-8-carbonitrile] the value was 6 nM.
